Test results taken from a melting point compilation (Tetko et al.; mined from patent text by program, amines drawn as free bases though some values may be those of a salt).

| Structure (SMILES) | melting point |
| --- | --- |
| NC(Cc1c[nH]c2ccccc12)C(=O)Nc1c(F)cc(F)cc1F (stereo not given) | 45 to 55 °C |
| Clc1c[nH]nc1-c1cc(Br)cc(Br)c1 | 188 °C |
| C=C(C(=O)c1ccc(OC)c(OC)c1)c1ccc(F)cc1 | 77 to 78 °C |
| NS(=O)(=O)c1ccc(-n2nc(C(=O)O)cc2-c2ccc(Cl)cc2)cc1 | 126 to 128 °C |
| C#CCN(c1ccc(C(=O)NC(CCCCCC(=O)O)C(=O)O)cc1)C1CCc2cc3nc(C)[nH]c(=O)c3cc21 (stereo not given) | 186 °C |
| CCCN(CCC)C(=O)CNc1ccnc(-c2ccccc2)n1 | 74 to 75 °C |
| CC(=O)N(c1ccccn1)c1ncc(Br)s1 | 132 to 138 °C |
| N#Cc1cccc(C(CC(=O)c2ccc(F)cc2)CC(=O)c2ccc(F)cc2)c1 | 120 to 123 °C |
| CCOC(=O)c1c(C(F)(F)F)nc(C(F)(F)F)c(C(=O)OC)c1N1CCCC1 | 68.5 to 70 °C |
| CCC(=NO)c1ccccc1O | 88 to 90 °C |
| CCCCCCCCCCCCCCCCCCCCCCSCCC(=O)NN | 106 °C |
| CCn1cc(C(=O)O)c(=O)c2cc(N)c(-c3cc(C)nc(C)c3)cc21 | 288 to 290 °C |
| Cc1cc(SC2=C(O)CC(CCc3ccc(O)cc3)(c3ccccc3)OC2=O)c(C(C)(C)C)cc1CO (stereo not given) | 199 to 201 °C |
| CS(=O)(=O)c1ccc(-c2c(C(=O)O)c3cccccc-3c2-c2ccccc2)cc1 | 168 to 169 °C |
| CCOc1nc(F)cc2nc(=S)[nH]n12 | 78 to 82 °C |
| CC1CC2(C)C(CCC3C4CCC(C5(C)OCCO5)C4(C)CC(=O)C32)CC1O (stereo not given) | 167 to 168 °C |
| CN(C)C1Cc2cccc3[nH]c(=O)n(c23)C1 (stereo not given) | 220 to 223 °C |
| CCOC(=O)c1ccc(COc2ccc3c(c2)C(C)(C)CCC3(C)C)cc1 | 76 to 77 °C |
| CCCCCCCCNC(=O)CP(=O)(O)O | 142 to 143 °C |
| O=c1[nH]c2cscc2c(=O)n1CCCCCN1CCC(=C(c2ccc(F)cc2)c2ccc(F)cc2)CC1 | 118 to 122 °C |
| CC(=NOCCOc1ccc(C[C@H](Oc2ccc(C(C)(C)C)cc2)C(=O)O)cc1)c1ccc(-c2ccccc2)cc1 | 141 to 143 °C |
| COc1ccc(CCN(C)C(C)(C)CO)cc1 | 40 °C |
| O=C1CC(Cc2ccc(F)cc2)CN1 (stereo not given) | 88.5 to 90 °C |
| O=C(C=c1sc2n(c1=O)Cc1ccccc1N=2)Oc1ccccc1 | 194 to 195 °C |
| COc1ccnc(C(=O)N[C@H]2COC(=O)[C@H](CC3CCCCC3)[C@@H](OC(=O)C(C)C)[C@H](C)OC2=O)c1OC(C)=O | 164 to 170 °C |

| Structure (SMILES) | melting point |
| --- | --- |
| Cn1nc2cccc(O)c2c1S(N)(=O)=O | 180 to 181 °C |
| CN(C)c1c(C#N)c(N)nn1C | 100 to 102 °C |
| CCOCc1nc2c(N)nc3ccccc3c2n1NCCCNC(C)=O | 178 to 181 °C |
| CC1(CCN2C(=O)c3cccc([N+](=O)[O-])c3C2O)OCCO1 (stereo not given) | 130 °C |
| COC(=O)c1ccc(C(=O)c2cc3c(cc2OCc2ccc(C(C)(C)C)cc2)C(C)(C)CCC3(C)C)cc1 | 168 to 170 °C |
| NC(=S)c1cc(Cl)cc2cc(Cl)cnc12 | 226 °C |
| COc1ccccc1-c1cccc(-n2cnc3cc(C(O)C#N)ccc32)c1 (stereo not given) | 116 to 124 °C |
| O=C(NCc1ccccn1)Nc1cc(NC(=O)c2ccccc2)ccn1 | 222 to 223 °C |
| Cc1nc(N)sc1S(=O)(=O)NC(C)(C)CO | 146 °C |
| CC(C)(C)c1ccc(CCC(CO)CC2CCCCC2)cc1NC(=O)CC1c2ccccc2Oc2ccccc21 (stereo not given) | 130 to 131 °C |
| Nc1nc(N)c2c(n1)NCC(CCc1ccc(C(=O)N[C@@H](CCC(=O)O)C(=O)O)cc1)C2 (stereo not given in full) | > 250 °C |
| Cc1cc2c(c3c1C(c1ccc(C(C)C)cc1)CO3)CCCC2 (stereo not given) | 54 to 55 °C |
| CCOC(=O)CCCCC(=O)c1ccc2cc(OCCC(C)C)ccc2c1 | 65 to 66 °C |
| CC(C)C1(C)N=C(c2nc(O)ccc2C(=O)O)NC1=O (stereo not given) | 201 to 203 °C |
| N#CN=C(Nc1cccnc1)NC(CC12CC3CC(CC(C3)C1)C2)NC(=O)c1ccc(Cl)cc1 (stereo not given) | 202 to 203 °C |
| COc1c(OC)c(OC)c2c(c1OC)c(=O)c1ccc(OCc3ccccc3)c(OC)c1n2C | 127 to 128 °C |
| CON(C)C(=O)c1cc(Br)cc([N+](=O)[O-])c1N | 129 °C |
| CCOC(=O)[C@@H](O)[C@@H]1OC(=O)c2ccc(OC)cc21 | 121 to 122 °C |
| C[C@@H](n1cnc2cc(-c3ccc(Cl)cc3)sc2c1=O)[C@](O)(Cn1cncn1)c1ccc(Cl)cc1Cl | 132 to 136 °C |
| CCOC(=O)c1cn2c(C)c(C)nc2c(NCc2c(C)cccc2CC)n1 | 144 °C |
| O=C1CN(CCN2CC(=O)N(CN3CCCC3)C(=O)C2)CC(=O)N1CN1CCCC1 | 150 to 155 °C |
| CCCCCCCCCCCCCCCCCCOc1ccc(C(=O)OC)c(O)c1 | 61 to 64 °C |
| CN(CCc1ccccc1)C(=O)Cn1cc(C=CC=CC(=O)O)c2cc(OCc3ccccc3)ccc21 | 189 to 190 °C |
| c1ccc(-c2cn3cccnc3n2)cc1 | 200 to 202 °C |
| NC(=O)NCc1cccc2c1C(=O)N(C1CCC(=O)NC1=O)C2=O (stereo not given) | 292 to 294 °C |
